Results: US7879911B2 (priority 2007, dated 2011)

Molecular target: Lethal factor protease (Bacillus anthracis, UniProt P15917)
Assay: biochemical
Details: LF (FRET) Ki^app

Chain of Lethal factor protease (P15917 34-809 limits assumed): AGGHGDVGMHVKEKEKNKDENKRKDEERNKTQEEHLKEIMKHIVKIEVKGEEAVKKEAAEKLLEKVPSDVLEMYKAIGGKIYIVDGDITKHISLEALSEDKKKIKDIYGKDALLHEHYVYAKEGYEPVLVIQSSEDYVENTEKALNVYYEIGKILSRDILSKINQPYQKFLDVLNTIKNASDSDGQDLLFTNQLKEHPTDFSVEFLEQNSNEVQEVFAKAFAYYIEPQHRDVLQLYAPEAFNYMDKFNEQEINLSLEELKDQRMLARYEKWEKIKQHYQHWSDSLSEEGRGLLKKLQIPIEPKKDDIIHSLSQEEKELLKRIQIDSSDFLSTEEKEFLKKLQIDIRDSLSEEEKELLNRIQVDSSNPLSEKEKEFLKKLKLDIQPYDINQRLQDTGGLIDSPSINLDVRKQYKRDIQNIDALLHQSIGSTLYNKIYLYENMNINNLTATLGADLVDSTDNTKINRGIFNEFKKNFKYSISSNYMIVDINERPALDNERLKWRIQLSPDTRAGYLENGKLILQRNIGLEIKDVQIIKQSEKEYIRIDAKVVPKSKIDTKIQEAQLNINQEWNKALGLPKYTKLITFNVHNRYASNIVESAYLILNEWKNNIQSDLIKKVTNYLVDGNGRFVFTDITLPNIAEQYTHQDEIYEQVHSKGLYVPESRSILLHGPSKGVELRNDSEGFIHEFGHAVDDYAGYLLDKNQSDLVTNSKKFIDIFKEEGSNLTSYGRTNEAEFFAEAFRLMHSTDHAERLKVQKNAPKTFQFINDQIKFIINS

Structure (SMILES)	Ki [µM]
CCCCC(C(=O)NO)[S+]([O-])c1ccc(F)c(C)c1 (single isomer, unassigned) [Compound 167351, syn-2-(4-Fluoro-3-methyl-benzenesulfinyl)-hexanoic acid hydroxyamide]	10.3
CCCCC(C(=O)NO)[S+]([O-])c1ccc(F)c(C)c1 (single isomer, unassigned) [Compound 167352, anti-2-(4-Fluoro-3-methyl-benzenesulfinyl)-hexanoic acid hydroxyamide]	67
CCCCC(Oc1ccc(F)c(C)c1)C(=O)NO (stereo not shown) [Compound 167163, 2-(4-Fluoro-3-methyl-phenoxy)-hexanoic acid hydroxyamide]	5.5
Cc1cc(OCC(=O)NO)ccc1F [Compound 167182, 2-(4-Fluoro-3-methyl-phenoxy)-N-hydroxy-acetamide]	29.2
CCCCC(Sc1ccc(F)c(C)c1)C(=O)NO (stereo not shown) [Compound 167303, 2-(4-Fluoro-3-methyl-phenylsulfanyl)-hexanoic acid hydroxyamide]	2.5
CCCCC(C(=O)NO)S(=O)(=O)c1ccc(F)c(C)c1 (stereo not shown) [Compound 167304, 2-(4-Fluoro-3-methyl-benzenesulfonyl)-hexanoic acid hydroxyamide]	30
CCCCC(C(=O)NO)[S+]([O-])c1ccc(F)c(C)c1 (stereo not shown) [Compound 167316, 2-(4-Fluoro-3-methyl-benzenesulfinyl)-hexanoic acid hydroxyamide]	18
CCC[C@@H](Oc1ccc(F)c(C)c1)C(=O)NO [Compound 168090, (R)-2-(4-Fluoro-3-methyl-phenoxy)-pentanoic acid hydroxyamide]	3.7
Cc1cc(O[C@H](CCO)C(=O)NO)ccc1F [Compound 168093, (R)-2-(4-fluoro-3-methylphenoxy)-N,4-dihydroxybutanamide]	23.1
Cc1cc(CNCCCC[C@@H](Oc2ccc(F)c(C)c2)C(=O)NO)ccc1F [Compound 168097, (R)-6-(4-Fluoro-3-methylbenzylamino)-2-(4-fluoro-3-methylphenoxy)-N-hydroxyhexanamide]	0.21
Cc1cc(CNCCCC[C@@H](Oc2cc(C)c(F)c(C)c2)C(=O)NO)ccc1F [Compound 168100, (R)-2-(4-fluoro-3,5-dimethylphenoxy)-6-(4-fluoro-3-methylbenzylamino)-N-hydroxyhexanamide]	0.58
Cc1cc(COCCCC[C@@H](Oc2ccc(F)c(C)c2)C(=O)NO)ccc1F [Compound 168113, (R)-6-(4-Fluoro-3-methylbenzyloxy)-2-(4-fluoro-3-methylphenoxy)-N-hydroxyhexanamide]	0.54
Cc1cc(OCC(=O)NO)cc(C)c1F [Compound 168115, 2-(4-Fluoro-3,5-dimethyl-phenoxy)-N-hydroxy-acetamide]	2.52
O=C(COc1ccc(F)c(Cl)c1)NO [Compound 168127, 2-(3-chloro-4-fluorophenoxy)-N-hydroxyacetamide]	31.2
O=C(COc1ccc(F)cc1)NO [Compound 168128, 2-(4-fluorophenoxy)-N-hydroxyacetamide]	61.1
O=C(COc1ccc(Cl)cc1)NO [Compound 168129, 2-(4-chlorophenoxy)-N-hydroxyacetamide]	83.9
O=C(COc1ccc(F)c(F)c1)NO [Compound 168130, 2-(3,4-difluorophenoxy)-N-hydroxyacetamide]	26.2
Cc1cc(COCCCC[C@@H](Oc2cc(C)c(F)c(C)c2)C(=O)NO)ccc1F [Compound 168135, (R)-2-(4-fluoro-3,5-dimethylphenoxy)-6-(4-fluoro-3-methylbenzyloxy)-N-hydroxyhexanamide]	3.03
Cc1cc(CCCN(C)CC[C@@H](Oc2ccc(F)c(C)c2)C(=O)NO)ccc1F [Compound 168142, (R)-2-(4-fluoro-3-methylphenoxy)-4-((3-(4-fluoro-3-methylphenyl)propyl)(methyl)amino)-N-hydroxybutanamide]	1.12
Cc1cc(O[C@H](CCN2CCC[C@@H](CN3CCCCC3)C2)C(=O)NO)ccc1F [Compound 168143, (R)-2-(4-fluoro-3-methylphenoxy)-N-hydroxy-4-((S)-3-(piperidin-1-ylmethyl)piperidin-1-yl)butanamide]	1.67
O=C(NO)[C@@H](C/C=C\COCc1ccccc1)Oc1ccc(F)c(Cl)c1 [Compound 168160, (R,Z)-6-(benzyloxy)-2-(3-chloro-4-fluorophenoxy)-N-hydroxyhex-4-enamide]	1.25
Cc1cc(O[C@H](CCCCO)C(=O)NO)ccc1F [Compound 168176, (R)-2-(4-fluoro-3-methylphenoxy)-N,6-dihydroxyhexanamide]	1.78
Cc1cc(O[C@H](CCCCNCc2cccs2)C(=O)NO)ccc1F [Compound 168177, (R)-2-(4-fluoro-3-methylphenoxy)-N-hydroxy-6-(thiophen-2-ylmethylamino)hexanamide]	0.21
Cc1cc(O[C@H](CCCCNCc2cccc(-c3ccc(F)cc3)c2)C(=O)NO)ccc1F [Compound 168178, (R)-2-(4-fluoro-3-methylphenoxy)-6-((4′-fluorobiphenyl-3-yl)methylamino)-N-hydroxyhexanamide]	0.13
Cc1cc(O[C@H](CCCCNCC2CC3CCC2C3)C(=O)NO)ccc1F (stereo partly shown) [Compound 168183]	0.17
Cc1cc(O[C@H](CCCCNCc2ccco2)C(=O)NO)ccc1F [Compound 168184]	0.75
Cc1cc(O[C@H](C/C=C/COCc2ccccc2)C(=O)NO)ccc1F [Compound 168185]	0.77
O=C(NO)[C@@H](CCCCOCc1ccccc1)Oc1ccc(F)c(Cl)c1 [Compound 168187]	1.07
